Assay: Plasma pharmacokinetics after single […] IV infusion of nacubactam 2 g coadministered with meropenem 2 g (Phase 1)
Assay type: in vivo, healthy adult male and female volunteers
Settings: n = 21, geometric mean (CV%), 2 g nacubactam + 2 g meropenem IV
Description: The study consisted of a screening visit (Days −28 to −1), a treatment and sampling period (Day 1), and a safety follow-up visit (Days 7–14). […] The two drugs were administered concurrently as separate solutions through two separate lines via a large bore, double-lumen catheter, under the supervision of study personnel. […] While all participants received the same study drug treatment and followed the same blood sampling scheme, each individual was assigned to one of five possible timepoints (2, 3, 4, 6, or 8 h after the start of study drug administration) for the BAL procedure. Equal numbers of participants were assigned to each timepoint, and assignment of individual participants was at the discretion of the investigator. […] An additional plasma sample was taken at the same time as part of the BAL procedure to measure urea. The plasma samples were stored at −80°C pending analysis. […] PK parameters were estimated by non-compartmental analysis using Phoenix WinNonlin (version 6.4; Certara USA, Inc.) by Covance.

NCCONC(=O)[C@@H]1CC[C@@H]2CN1C(=O)N2OS(=O)(=O)O [Nacubactam]
AUC0–8h: 275 (19) µg·h/mL
